Data on 1 compound can be found in publication PMC10302868 (Molecules, 2023).

Values after ≈ are worked out from the molar mass of the structure shown. Where two headings read alike, the source gives them in different places.

The subject of data set [1] is M. abscessus-GDI. As to the kind of experiment: MIC determination (Microplate Alamar Blue Assay). It counts as cell-based, Mycobacterium abscessus. The conditions noted are these: Mycobacteroides abscessus, 72 h.
The subject of data set [2] is M. abscessus-C58. Description: MIC determination (Microplate Alamar Blue Assay). The class given is cell-based, Mycobacterium abscessus. Particulars: Mycobacteroides abscessus; M. abscessus-C58, 72 h.
Data set [3] concerns E. faecalis EFA-1299. Description: MIC determination. The class given is cell-based. The conditions noted are these: Enterococcus faecalis, EFA1299.
Data set [4] deals with S. epidermidis SEP-1024. Description: MIC determination. It counts as cell-based. Particulars: Staphylococcus epidermidis, SEP1024.
Data set [5] relates to S. aureus ATCC 29213 (MSSA). Description: MIC determination. It counts as cell-based. The conditions noted are these: Staphylococcus aureus.
The nature of data set [6]: Pharmacokinetics in rats. The conditions noted are these: Rat.
In data set [7] the test system is H. influenzae ATCC 49247. As to the kind of experiment: MIC determination. The conditions noted are these: Haemophilus influenzae, ATCC49247. The class given is cell-based.
For data set [8], the system named is M. smegmatis mc^2155. As to the kind of experiment: MIC determination (Microplate Alamar Blue Assay). It counts as cell-based. The conditions noted are these: Mycolicibacterium smegmatis; M. smegmatis mc^2155, 72 h.
For data set [9] the following is noted: male, Sprague-Dawley, rat, in vivo, iv, 3 mg/kg.
Data set [10] has as its system S. aureus ATCC 700698 (MRSA). Description: MIC determination. It counts as cell-based. The conditions noted are these: Staphylococcus aureus.
For data set [11] the following is noted: allometric scaling from rat volume of distribution.
Data set [12] in a line: in vivo. Particulars: male, Sprague-Dawley, rat.
In data set [13] the test system is S. maltophilia STM-0001. Description: MIC determination. It counts as cell-based. The conditions noted are these: Stenotrophomonas maltophilia, STM0001.

Take `C=C[C@]1(C)C[C@@H](OC(=O)COc2ccc3c(c2F)B(O)OC3)[C@]2(C)[C@H](C)CC[C@]3(CCC(=O)[C@H]32)[C@@H](C)[C@@H]1O` [AN11251]: the MIC in data set [1] is more than 20 µg/mL; in [2] it was more than 20 µg/mL; in data set [3], 4 µg/mL (≈ 7.57 µM); in data set [4] it was 0.063 µg/mL (≈ 0.119 µM); in data set [5], less than 0.039 µg/mL; in data set [7] it was 2 µg/mL (≈ 3.78 µM). The MIC in data set [8] was more than 20 µg/mL; in data set [10] it was less than 0.039 µg/mL; in data set [13], more than 32 µg/mL. Moreover, the “time until eliminated (plasma concentration-time curve)” value in [6] is listed as not above 8 h. The MRT in data set [9] came to 1.04 h; in [12] (iv, 3 mg/kg), 1.22 h; in [12] (po, 10 mg/kg) it was 2.26 h. In addition, the “predicted human volume of distribution” value in data set [11] is on record as 1.029 L/kg. The bioavailability in data set [12] came out at 19.2%. Moreover, in data set [12] (iv, 3 mg/kg), the Tmax was 0 h. The distribution volume (Vd) in [12] (iv, 3 mg/kg) amounted to 1.44 L/kg. The clearance in [12] (iv, 3 mg/kg) turned out to be 19.8 mL/min/kg. Further, the half-life was 1.75 h in data set [12] (iv, 3 mg/kg) and 2.39 h in data set [12] (po, 10 mg/kg).
